# Target: T1, epidermal growth factor receptor tyrosine kinase (Homo sapiens, UniProt P00533)
# T1 construct: A native 170,000 epidermal growth factor receptor-kinase complex from shed plasma membrane vesicles; endogenous in cells
# Assay: EGF receptor tyrosine kinase assay (P^32 incorporation in GAT)
# Type: biochemical
# Conditions: Table 2, EGRF-R; IC50 entries; read-out: IC50 (EGFR TK)
# Method: At the time of assay, membranes were solubilized in 4% Triton X-100 and glycerol. The reaction is carried out in wells of a 96-well microtiter plate in a total volume of […]. Buffer containing 20 mMHepes (pH 7.4), 15 mMMgCl2, mM MnCl2, and 0.02% BSA followed by […] of membrane protein and 150 ng of epidermal growth factor. The plates are incubated for 10 minutes at room temperature to activate the receptor kinase. […] ATP plus or minus compound are added and incubated 10 minutes at room temperature.
# T1 sequence (P00533 25-1210): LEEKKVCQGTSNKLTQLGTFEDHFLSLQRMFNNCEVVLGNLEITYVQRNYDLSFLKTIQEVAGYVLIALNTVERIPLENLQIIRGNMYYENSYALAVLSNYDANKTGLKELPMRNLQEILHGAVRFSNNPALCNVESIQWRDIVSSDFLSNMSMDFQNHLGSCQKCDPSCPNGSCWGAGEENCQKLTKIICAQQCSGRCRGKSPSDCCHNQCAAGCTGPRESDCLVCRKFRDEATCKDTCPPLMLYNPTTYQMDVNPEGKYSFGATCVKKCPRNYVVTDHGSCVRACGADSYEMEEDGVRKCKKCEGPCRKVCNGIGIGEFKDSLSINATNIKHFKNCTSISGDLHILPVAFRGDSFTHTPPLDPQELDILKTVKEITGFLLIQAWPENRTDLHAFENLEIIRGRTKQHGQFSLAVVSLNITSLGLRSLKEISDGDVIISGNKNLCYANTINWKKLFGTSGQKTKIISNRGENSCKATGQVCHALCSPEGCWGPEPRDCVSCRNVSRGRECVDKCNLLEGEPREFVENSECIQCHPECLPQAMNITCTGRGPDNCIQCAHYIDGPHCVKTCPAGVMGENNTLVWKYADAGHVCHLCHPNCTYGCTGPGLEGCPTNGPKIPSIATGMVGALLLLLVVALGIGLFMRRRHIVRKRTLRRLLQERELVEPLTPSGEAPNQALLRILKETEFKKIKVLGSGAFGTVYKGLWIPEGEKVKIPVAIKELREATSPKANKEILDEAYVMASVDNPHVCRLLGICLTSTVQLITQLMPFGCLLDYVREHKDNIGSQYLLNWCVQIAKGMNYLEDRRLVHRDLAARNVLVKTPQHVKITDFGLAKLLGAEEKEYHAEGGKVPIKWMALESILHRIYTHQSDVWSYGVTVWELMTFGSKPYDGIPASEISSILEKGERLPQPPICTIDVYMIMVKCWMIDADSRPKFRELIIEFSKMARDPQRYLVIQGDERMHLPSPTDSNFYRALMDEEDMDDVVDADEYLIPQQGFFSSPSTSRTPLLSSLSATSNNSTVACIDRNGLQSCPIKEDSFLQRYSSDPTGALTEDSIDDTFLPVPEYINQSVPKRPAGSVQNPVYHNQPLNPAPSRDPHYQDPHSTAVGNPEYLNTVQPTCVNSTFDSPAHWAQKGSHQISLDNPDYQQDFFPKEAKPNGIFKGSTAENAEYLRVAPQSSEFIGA
# T1 sequence (P01133 971-1023 partner limits assumed): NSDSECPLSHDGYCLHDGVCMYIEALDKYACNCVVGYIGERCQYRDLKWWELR
row,SMILES,IC50 [µM]
1,CN(C)C(=O)CCc1c(SSc2[nH]c3ccccc3c2CCC(=O)N(C)C)[nH]c2ccccc12 [Compound 53],4.2
2,Cn1c(SSc2c(C#N)c3ccccc3n2C)c(C#N)c2ccccc21 [Compound 120],6.9
3,"O=C(O)CCCc1c(SSc2[nH]c3ccccc3c2CCCC(=O)O)[nH]c2ccccc12 [Compound 65, bis[indolyl-3-butanoic acid-(2)]disulfide]",17.8
4,"O=C(O)CC1C(=S)Nc2ccccc21 (stereo not drawn) [Compound 1, 2-(2-thioxo-3-indolinyl)acetic acid]",14.9
5,"CN1C(=S)C(C(=O)c2ccc(C(=O)O)cc2)c2ccccc21 (stereo not drawn) [Compound 25, 3-(4'-carboxybenzoyl)-1-methyl-2-indolinethione]",8.7
6,Cn1c(SSc2c(CCCC(=O)O)c3ccccc3n2C)c(CCCC(=O)O)c2ccccc21 [Compound 66],8.3
7,"CN1C(=S)C(C(=O)Nc2ccccc2)c2cc(Cl)ccc21 (stereo not drawn) [Compound 20, N-phenyl 5-chloro-1-methyl-2-thioxoindole-3-carboxamide]",9
8,"Cn1c(SSc2c(C(=O)c3ccc(C(=O)O)cc3)c3ccccc3n2C)c(C(=O)c2ccc(C(=O)O)cc2)c2ccccc21 [Compound 101, bis[3-(4'-carboxybenzoyl)-1-methylindole-(2)]disulfide]",5.5
9,"N#CCCc1c(SSc2[nH]c3ccccc3c2CCC#N)[nH]c2ccccc12 [Compound 48, 2,2'-dithiobis[3-indolylpropionitrile]]",35.5
10,"CC(=O)Oc1cccc2c(C(=O)Nc3ccccc3)c(SSc3c(C(=O)Nc4ccccc4)c4cccc(OC(C)=O)c4n3C)n(C)c12 [Compound 95, 2,2'-dithiobis[N-phenyl-7-acetoxy-1-methylindolyl-3-carboxamide]]",9.4
11,"NC(=O)CCC1C(=S)Nc2ccccc21 (stereo not drawn) [Compound 14, 3-(2-thioxo-3-indolinyl)propanamide]",22
12,"O=C(O)CCCC1C(=S)Nc2ccccc21 (stereo not drawn) [Compound 15, 4-(2-thioxo-3-indolinyl)butanoic acid]",6.8

# Same assay, conditions: at 100 μM; EGRF-R; read-out: % Inhibition at 100 μM (EGFR TK)
row,SMILES,inhibition at 100 µM [%]
1,"CCOC(=O)CCc1c(SSc2[nH]c3ccc(C)cc3c2CCC(=O)OCC)[nH]c2ccc(C)cc12 [Compound 42, bis[ethyl 5-methylindolyl-3-propanoate-(2)]disulfide]",26
2,"Cn1c(SSc2c(C(=O)Nc3ccccc3)c3cccc(Cl)c3n2C)c(C(=O)Nc2ccccc2)c2cccc(Cl)c21 [Compound 74, bis [N-phenyl-7-chloro-1-methylindolyl-3-carboxamide-(2)]disulfide]",23
3,"CC(=O)Oc1ccc2c(C(=O)Nc3ccccc3)c(SSc3c(C(=O)Nc4ccccc4)c4ccc(OC(C)=O)cc4n3C)n(C)c2c1 [Compound 93, 2,2'-dithiobis [N-phenyl-6-acetoxy-1-methylindolyl-3-carboxamide]]",30
4,"CN1C(=S)C(CC(=O)O)c2ccccc21 (stereo not drawn) [Compound 2, 2-(1-methyl-2-thioxo-3-indolinyl)acetic acid]",26
5,"O=C(NCc1ccccc1)c1c(SSc2[nH]c3ccccc3c2C(=O)NCc2ccccc2)[nH]c2ccccc12 [Compound 125, 2,2'-dithiobis [N-benzylindolyl-3-carboxamide]]",78
6,"CCOC(=O)CCC1C(=S)N(C)c2ccccc21 (stereo not drawn) [Compound 12, ethyl 3-(1-methyl-2-thioxo-3-indolinyl)propanoate]",3
7,O=C(CCc1c(SSc2[nH]c3ccccc3c2CCC(=O)NCc2ccc(C(=O)O)c(O)c2)[nH]c2ccccc12)NCc1ccc(C(=O)O)c(O)c1 [Compound 58],68
8,"COC(=O)CCCC1C(=S)Nc2ccccc21 (stereo not drawn) [Compound 17, methyl 4-(2-thioxo-3-indolinyl)butanoate]",12.5

# Same assay, conditions: read-out: IC50 (EGFR TK)
row,SMILES,IC50 [µM]
1,"Cn1c([Se][Se]c2c(C(=O)O)c3ccccc3n2C)c(C(=O)O)c2ccccc21 [Compound 130, 2,2'-diselenobis [1-methyl-1H-indole-3-carboxylic acid]]",3.5

# Source: patent publication US5464861A, “2-thioindoles (selenoindoles) and related disulfides (selenides) which inhibit protein tyrosine kinases and which have antitumor properties” (Warner-Lambert, priority 1993, dated 1995)
